{"source": "patent US9855256B2", "about": "“Cyclooxygenase inhibitor and calcium channel antagonist compositions and methods for use in urological procedures” (Omeros Corporation, priority 2005, dated 2018)", "key": {"[1]": {"test_system": "overactive bladder function", "assay": "Acetic-acid overactive bladder model, intravesical local delivery, cystometry, Example V", "settings": "0.2% acetic acid", "protocol": "In this model, acute inflammation of the bladder is produced by using 0.2% acetic acid in saline as the bladder perfusion fluid and cystometry under anesthesia is performed after a recovery period from the surgical procedure.\nThe animals were anesthesized and bladder catheters were surgically implanted to allow irrigation of the test agents. The following cystometry parameters were monitored: intercontraction interval (ICI), trigger pressure (TP), micturition pressure (MP) and micturition volume (MV) using a Med Associates Cystometry Station and software program. […] Following the saline period, the rat bladder was infused with test agent in saline containing 0.2% acetic acid for 20 min followed by the collection of 7 representative ICI intervals for analysis.\nFive to seven animals were normally tested in each group. Acidified saline served as the control. All infusion solutions were prepared fresh on the day of the experiment before use."}, "[2]": {"test_system": "Isolated bladder smooth muscle strips", "assay": "Bladder strip contractility (bradykinin-induced contraction), Examples I and II", "format": "cell-based, rat"}, "[3]": {"test_system": "PGE2", "settings": "10 μM perfusion 60 min then saline 30 min; bladders harvested at 90 min"}, "[4]": {"test_system": "urinary bladder", "assay": "In vivo rat cystometry model, 0.2% acetic acid infusion, intravenous drug", "settings": "10 mg/kg i.v.", "experimental": "The rats were anesthetized with urethane at 1.2 g/kg i.p. in 5 ml/kg. A polyethylene catheter (PE50) was implanted into the bladder for saline or acetic acid infusion through a 3-way stopcock. A pressure transducer was connected for measurements of intravesical pressure. Warm (37° C.) saline was infused into the bladder at a constant rate of […] (1 ml/hour) until cystometry became stable (no less than 60 minutes). Thereafter, 0.2% acetic acid was infused into the urinary bladder. Aspirin (10 mg/kg i.v.) and vehicle were administered intravenously via a PE-10 catheter in the femoral vein at 5 minutes after infusion of acetic acid was started and at the end of first micturition cycle. Dunnett's test was applied for comparison between the time before and after test substance or vehicle treatment. To ascertain differences between the test substance and the vehicle control group, an unpaired Student's t test was used. Differences are considered significant at […]."}}}
{"compound": "COC(=O)C1=C(C)NC(C)=C(C(=O)OC)C1c1ccccc1[N+](=O)[O-]", "note": "[Nifedipine, 1,4-dihydro-2,6-dimethyl-4-(2-nitrophenyl)-3,5-pyridinedicarboxylic acid dimethyl ester]", "values": [{"measurement": "concentration of maximal effects on shortening of the ICI", "setting": "[1]; in irrigation buffer, female rats", "result": "~1", "unit": "µM"}, {"measurement": "ICI plateau at higher concentrations, of baseline", "setting": "[1]; nifedipine above 1 μM", "result": "approximately 75%"}, {"measurement": "type of antagonism upon bradykinin-induced contractile responses", "setting": "[2]; single agents, 10 min incubation", "result": "noncompetitive"}]}
{"compound": "CC(C(=O)O)c1cccc(C(=O)c2ccccc2)c1", "note": "(stereo not drawn) [Ketoprofen, 3-benzoyl-α-methylbenzeneacetic acid]", "values": [{"measurement": "bladder tissue PGE2 levels", "setting": "[3]", "result": "83±22", "unit": "pg/mg protein"}, {"measurement": "effect on maximal tension", "setting": "[2]; ketoprofen 0.25-10 μM", "result": "no apparent effect"}]}
{"compound": "CC(=O)Oc1ccccc1C(=O)O", "note": "[aspirin]", "values": [{"measurement": "bladder capacity", "setting": "[4]", "result": "parallel changes"}, {"measurement": "effect on acetic acid induced reduction in the intercontraction interval (ICI)", "setting": "[4]", "result": "gradual time-dependent inhibition"}, {"measurement": "micturition pressure", "setting": "[4]", "result": "not affected"}, {"measurement": "threshold pressure", "setting": "[4]", "result": "not affected"}]}
